Like-named read-outs stand apart in the source and are kept apart here.
Legend:
[1] = tested on: Cy5-labelled JUN IRES model (RNA, mRNA element) GCAGUAUAGGAAACUAACUGC; assay: Cy5 fluorescence titration
[2] = tested on: JUN IRES fully paired control (A bulge to AU pair), Cy5 (RNA, mRNA element) GCAGUAUAGGAAACUAUACUGC; assay: Cy5 fluorescence titration; conditions: no saturable binding
[3] = tested on: JUN IRES A bulge model with 2AP (5'UAU/3'A_A) (RNA, mRNA element, 2-aminopurine in place of the bulged A) GCAGUAUAGGAAACUAACUGC; assay: 2-aminopurine fluorescence titration
[4] = tested on: JUN IRES 2AP control RNA (bulge converted to base pair) (RNA, mRNA element, 2-aminopurine (position not given)) GCAGUAUAGGAAACUAUACUGC; assay: 2-aminopurine fluorescence titration
[5] = tested on: Cy5-labelled MYC IRES 5'UUCG/3'ACCC 2x2 internal loop model (RNA, mRNA element) GGGGGCUUCGCCUCUGGCCCAGCCCUC; assay: Cy5 fluorescence titration
[6] = tested on: MYC IRES fully paired control RNA (RNA, mRNA element) GGGGGCUUCGCCUCUGGCGAAGCCCUC; assay: Cy5 fluorescence titration
[7] = tested on: Cy5-5'GAU/3'C_A mimic (minimized pre-miR-155 A bulge) (RNA, mismatch bulge abasic) GUAAUGAUUACGAAAGUAACAUUGC; assay: microscale thermophoresis
[8] = tested on: pre-miR-155 A bulge with 2-aminopurine (2AP) (RNA, mismatch bulge abasic, 2-aminopurine in place of the bulged A) GUAAUGAUUACGAAAGUAACAUUGC; assay: 2-aminopurine fluorescence titration
[9] = tested on: pre-miR-155 (wild type) (RNA, miRNA) GGCUGUUAAUGCUAAUCGUGAUAGGGGUUUUUGCCUCCAACUGACUCCUACAUAUUAGCAUUAACAG; assay: competition with 2AP-labelled RNA; conditions: RIBOTAC 5 µM, 2AP-labelled A bulge RNA 1 µM; unlabelled pre-miR-155 as competitor
[10] = tested on: pre-miR-155 +U49 mutant (A bulge to AU pair) (RNA, miRNA) GGCUGUUAAUGCUAAUCGUGAUAGGGGUUUUUGCCUCCAACUGACUCCUAUCAUAUUAGCAUUAACAG; assay: competition with 2AP-labelled RNA; conditions: RIBOTAC 5 µM, 2AP-labelled A bulge RNA 1 µM; mutant does not compete
[11] = tested on: Cy5-2DCS model with two A bulges (RNA, mismatch bulge abasic) GGGUUUAAUAGAUACGAAAGUACUAAUUGGAUCC; assay: microscale thermophoresis
[12] = tested on: Cy5-2DCS model fully base paired (RNA, hairpin) GGGUUUAAUUAGAUACGAAAGUAUCUAAUUGGAUCC; assay: microscale thermophoresis; conditions: no saturable binding
[13] = tested on: Cy5-5'GAU/3'CUA mimic (A bulge to AU pair) (RNA, hairpin) GUAAUGAUUACGAAAGUAAUCAUUGC; assay: microscale thermophoresis; conditions: no saturable binding

CCOC(=O)C1=C(Nc2ccccc2)S/C(=C\c2ccc(OCCOCCOCCOCCNC(=O)CCNc3nc(Nc4ccc(C5=NCCN5)cc4)nc(Nc4ccc(C5=NCCN5)cc4)n3)c(O)c2)C1=O
Kd [1]: 500 ± 200 nM
binding [2]: no
EC50 [3]: 1800 ± 500 nM

CNc1nc(Nc2ccc(C3=NCCN3)cc2)nc(Nc2ccc(C3=NCCN3)cc2)n1
Kd [1]: 3200 ± 2000 nM
EC50 [3]: 1100 ± 200 nM
EC50 [4]: > 50000 nM

CCOC(=O)C1=C(Nc2ccccc2)S/C(=C\c2ccc(O)c(OCCOCCOCCOCCNC(=O)CCNc3nc(Nc4ccc(C5=NCCN5)cc4)nc(Nc4ccc(C5=NCCN5)cc4)n3)c2)C1=O
Kd [1]: 400 ± 100 nM
binding [2]: no
EC50 [3]: 3500 ± 900 nM

CCOC(=O)C1=C(Nc2ccccc2)S/C(=C\c2ccc(O)c(OCCOCCOCCOCCNC(=O)c3cc(NC(=O)Nc4ccc(C5=NCCN5)cc4)cc(NC(=O)Nc4ccc(C5=NCCN5)cc4)c3)c2)C1=O
Kd [5]: 900 ± 200 nM
binding ([6]; no saturable binding): no

CCCNC(=O)CCc1c(C)n(-c2c(C(C)C)cccc2C(C)C)c[n+]1-c1c(C(C)C)cccc1C(C)C
Kd ([7]; similar affinity to C1): 1100 ± 100 nM
binding ([8]; similar affinity to C1): yes

CCOC(=O)C1=C(Nc2ccccc2)S/C(=C\c2ccc(OCCOCCOCCOCCNC(=O)CCc3c(C)n(-c4c(C(C)C)cccc4C(C)C)c[n+]3-c3c(C(C)C)cccc3C(C)C)c(O)c2)C1=O
Kd [9]: 2200 ± 900 nM
binding [10]: no

O=C(Nc1ccc(C2=NCCN2)cc1)Nc1cc(NC(=O)Nc2ccc(C3=NCCN3)cc2)cc(C(=O)O)c1
Kd [5]: 2300 ± 1000 nM
binding [6]: no

CCOC(=O)C1=C(Nc2ccccc2)S/C(=C\c2ccc(OCCOCCOCCOCCNC(=O)c3cc(NC(=O)Nc4ccc(C5=NCCN5)cc4)cc(NC(=O)Nc4ccc(C5=NCCN5)cc4)c3)c(O)c2)C1=O
Kd [5]: 1100 ± 100 nM
binding ([6]; no saturable binding): no

CCCCCCCCCCCc1c(CCCCCCCCCCC)[n+](-c2c(C(C)C)cccc2C(C)C)cn1-c1c(C(C)C)cccc1C(C)C
Kd [11]: 1200 ± 100 nM
binding [12]: no
Kd [7]: 800 ± 100 nM
binding [13]: no
Kd,app ([8]; apparent, error printed as 1.2): 3900 ± 1000 nM

— article PMC10232370 (2023)
